Each block holds one compound with its values, some of them ahead of it.
What was measured:
[1] = % aliskiren recovered as M5 from M1 in bile following single intravenous administration of 10 mg.Kg-1 [14C] aliskiren hemifumarate in male rat; assay type: ADME, organism-based, HAN:WIST(SPF); conditions: in vivo
[2] = % aliskiren recovered as M5 from M1 in hydrolysed following single intravenous administration of 10 mg.Kg-1 [14C] aliskiren hemifumarate in male rat; assay type: ADME, organism-based, HAN:WIST(SPF), Bile; conditions: in vivo
[3] = % aliskiren recovered as M5 from M1 in urine following single intravenous administration of 10 mg.Kg-1 [14C] aliskiren hemifumarate in male rat; assay type: ADME, organism-based, HAN:WIST(SPF); conditions: in vivo
[4] = % aliskiren recovered as M5 from M1 of receiver rat following duodenal infusion of radioactivity through bile from donor rat treated with single intravenous administration of 10 mg.Kg-1 [14C] aliskiren hemifumarate; assay type: ADME, organism-based, HAN:WIST(SPF); conditions: in vivo
[5] = % of radioactivity recovered as M5 from M1 in plasma following oral administration of [14C] aliskiren hemifumarate at 100 mg.Kg-1 level in rat; assay type: ADME, organism-based, Albino HAN:WIST; conditions: in vivo
[6] = % of radioactivity recovered as M5 from M1 in urine following oral administration of [14C] aliskiren hemifumarate at 100 mg.Kg-1 level in rat; assay type: ADME, organism-based, Albino HAN:WIST; conditions: in vivo
[7] = % of radioactivity recovered as M5 from M1 in faeces following oral administration of [14C] aliskiren hemifumarate at 100 mg.Kg-1 level in rat; assay type: ADME, organism-based, Albino HAN:WIST, Feces; conditions: in vivo
[8] = % of radioactivity recovered as M5 from M1 in plasma following intravenous administration of [14C] aliskiren hemifumarate at 10 mg.Kg-1 level in rat; assay type: ADME, organism-based, Albino HAN:WIST; conditions: in vivo
[9] = % of radioactivity recovered as M5 from M1 in urine following intravenous administration of [14C] aliskiren hemifumarate at 10 mg.Kg-1 level in rat; assay type: ADME, organism-based, Albino HAN:WIST; conditions: in vivo
[10] = % of radioactivity recovered as M5 from M1 in faeces following intravenous administration of [14C] aliskiren hemifumarate at 10 mg.Kg-1 level in rat; assay type: ADME, organism-based, Albino HAN:WIST, Feces; conditions: in vivo
[11] = % aliskiren hemifumarate recovered as M12 in urine following single oral dose of 300 mg [14C]SPP100 studied in healthy men; assay type: ADME, organism-based; conditions: human, in vivo
[12] = % aliskiren hemifumarate recovered as M12 in faeces following single oral dose of 300 mg [14C]SPP100 studied in healthy men; assay type: ADME, organism-based, Feces; conditions: human, in vivo, at 300 mg
[13] = % aliskiren hemifumarate recovered as M12 in urine and faeces following single oral dose of 300 mg [14C]SPP100 studied in healthy men; assay type: ADME, organism-based, Urine/Feces; conditions: human, in vivo, at 300 mg
[14] = % of radioactivity recovered as M12 in plasma following oral administration of [14C] aliskiren hemifumarate at 100 mg.Kg-1 level in rat; assay type: ADME, organism-based, Albino HAN:WIST; conditions: in vivo
[15] = % of radioactivity recovered as M12 in urine following oral administration of [14C] aliskiren hemifumarate at 100 mg.Kg-1 level in rat; assay type: ADME, organism-based, Albino HAN:WIST; conditions: in vivo
[16] = % of radioactivity recovered as M12 in faeces following oral administration of [14C] aliskiren hemifumarate at 100 mg.Kg-1 level in rat; assay type: ADME, organism-based, Albino HAN:WIST, Feces; conditions: in vivo
[17] = % of radioactivity recovered as M12 in plasma following intravenous administration of [14C] aliskiren hemifumarate at 10 mg.Kg-1 level in rat; assay type: ADME, organism-based, Albino HAN:WIST; conditions: in vivo
[18] = % of radioactivity recovered as M12 in urine following intravenous administration of [14C] aliskiren hemifumarate at 10 mg.Kg-1 level in rat; assay type: ADME, organism-based, Albino HAN:WIST; conditions: in vivo
[19] = % of radioactivity recovered as M12 in faeces following intravenous administration of [14C] aliskiren hemifumarate at 10 mg.Kg-1 level in rat; assay type: ADME, organism-based, Albino HAN:WIST, Feces; conditions: in vivo
[20] = % aliskiren recovered as metabolite M12 in plasma following 10 day repeated oral administration of [14C] aliskiren hemifumarate at 100 mg.Kg-1 level studied in rat; assay type: ADME, organism-based, Albino HAN:WIST; conditions: in vivo, 240 h
[21] = % aliskiren recovered as metabolite M12 in urine following 10 day repeated oral administration of [14C] aliskiren hemifumarate at 100 mg.Kg-1 level studied in rat; assay type: ADME, organism-based, Albino HAN:WIST; conditions: in vivo, 240 h
[22] = % aliskiren recovered as metabolite M12 in faeces following 10 day repeated oral administration of [14C] aliskiren hemifumarate at 100 mg.Kg-1 level studied in rat; assay type: ADME, organism-based, Albino HAN:WIST, Feces; conditions: in vivo, 240 h

Compound recovery [1]: 5%
Compound recovery [2]: OUTCOME = Not detected
Compound recovery [3]: 3.2%
Compound recovery [4]: 8.9%
Compound recovery [5]: > 2%
Compound recovery [6]: <= 2%
Compound recovery [8]: <= 2%
SMILES: COCCCOc1cc(C[C@@H](C[C@H](N)[C@@H](O)C[C@H](C(=O)NCC(C)(C)C(N)=O)C(C)C)C(C)C)ccc1O[C@@H]1O[C@H](CO)[C@@H](O)[C@H](O)[C@H]1O
Compound recovery [7]: OUTCOME = Not detected or not investigated
Compound recovery [9]: OUTCOME = Not detected or not investigated
Compound recovery [10]: OUTCOME = Not detected or not investigated

Compound recovery [11]: OUTCOME = Not detected
Compound recovery [12]: < 1%
Compound recovery [13]: < 1%
Compound recovery [16]: <= 2%
Compound recovery [20]: OUTCOME = Not detected
Compound recovery [21]: OUTCOME = Not detected
SMILES: COCCCOc1cc(C[C@@H](C[C@H](NC(C)=O)[C@@H](O)C[C@H](C(=O)NCC(C)(C)C(N)=O)C(C)C)C(C)C)ccc1OC
Compound recovery [14]: OUTCOME = Not detected or not investigated
Compound recovery [15]: OUTCOME = Not detected or not investigated
Compound recovery [17]: OUTCOME = Not detected or not investigated
Compound recovery [18]: OUTCOME = Not detected or not investigated
Compound recovery [19]: OUTCOME = Not detected or not investigated
Compound recovery [22]: OUTCOME = Observed, VALUE = Measurable quantities
